Results: ChEMBL document CHEMBL3301361, “Experimental in vitro DMPK and physicochemical data on a set of publicly disclosed compounds”
Converted amounts (≈) assume the structure as drawn. Residues, ends and D or L forms follow the SMILES beside them.

Columns and labels:
[1] = in vitro; conditions: hepatocytes
[2] = in vitro; conditions: human
[3] = physchem; conditions: octan-1-ol/water
[4] = in vitro; conditions: human, plasma
[5] = physchem; conditions: pH 7.4 buffer

Row | Compound | hepatocyte CLint [1] | microsomal CLint ([2]; liver microsomes) | fraction unbound at 5 h ([4]; PPB) | also measured
1 | O=C(NCCCCCCNCCc1ccc(O)c2nc(O)sc12)Nc1ccccc1 | 98 µL/min/1e6 cells | 11 µL/min/mg |  | 
2 | Oc1nc2c(O)ccc(CCNCCOCCCOCCc3ccccc3)c2s1 | > 150 µL/min/1e6 cells | 56 µL/min/mg |  | 
3 | CN(CCc1ccc(O)c2[nH]c(=O)sc12)CCN(C)C(=O)CCOCCc1ccccc1 | > 150 µL/min/1e6 cells | > 150 µL/min/mg |  | 
4 | CCC(NC(=O)Nc1cc(Cl)ccc1Cl)(C(F)(F)F)C(F)(F)F | 22.9 µL/min/1e6 cells | 7.41 µL/min/mg |  | 
5 | CCn1c(SCC(=O)Nc2cc(C)on2)nnc1-c1ccccc1 | > 150 µL/min/1e6 cells | 32.4 µL/min/mg |  | 
6 | CCn1c(SCC(=O)Nc2cc(C)on2)nnc1-c1cccnc1 | 75.9 µL/min/1e6 cells |  |  | microsomal CLint ([2]; microsomes): 7.76 µL/min/mg
7 | O=C(NS(=O)(=O)c1ccccc1Cl)c1ccc[nH]1 | 3.31 µL/min/1e6 cells | < 3 µL/min/mg |  | 
8 | CCOC(=O)CN(c1ccccc1C)S(=O)(=O)c1ccc(Cl)cc1 | > 150 µL/min/1e6 cells | 94 µL/min/mg |  | 
9 | C[C@H]1CN(Cc2cc(Cl)ccc2CCC(=O)O)CCN1C(=O)Cc1ccccc1 | < 3 µL/min/1e6 cells | < 3 µL/min/mg |  | 
10 | CS(=O)(=O)c1ccc(-c2cnc(N)c(C(=O)Nc3ccccc3)n2)cc1 | 19.1 µL/min/1e6 cells |  |  | microsomal CLint ([2]; microsomes): 4.17 µL/min/mg
11 | CCOc1ccc2oc(C(=O)NC(CCSC)c3nc4ncccc4[nH]3)c(C)c2c1 (centres undefined) | 46 µL/min/1e6 cells | > 150 µL/min/mg |  | 
12 | O=c1[nH]c2c(O)ccc([C@@H](O)CNCCCSCCNCCc3ccccc3Cl)c2s1 | 12 µL/min/1e6 cells | 11 µL/min/mg |  | 
13 | Cc1c(Sc2ccc(Cl)cc2)c2cc(F)ccc2n1CC(=O)O | 34 µL/min/1e6 cells | < 3 µL/min/mg |  | 
14 | N#Cc1cnc(N2CCN(C(=O)[C@@H]3CCCC[C@H]3C(=O)NC3(C#N)CC3)CC2)s1 | 5.25 µL/min/1e6 cells |  |  | microsomal CLint ([2]; microsomes): 6.76 µL/min/mg
15 | N#CC1(NC(=O)[C@@H]2CCCC[C@H]2C(=O)N2CCN(c3nc4ccncc4s3)CC2)CC1 | 6.61 µL/min/1e6 cells |  |  | microsomal CLint ([2]; microsomes): 17.8 µL/min/mg
16 | CO[C@H]1CC[C@]2(CC1)Cc1ccc(-c3cc(Cl)cc(C#N)c3)cc1C21N=C(C)C(N)=N1 (some centres undefined) | 12.6 µL/min/1e6 cells |  | 0.0209 | logD ([3]; pH 7.4, LogD7.4): 3.8
17 | Cc1cccc(C[C@@H](C(=O)O)N2CCC(CN3CCC(Oc4ccc(Cl)c(Cl)c4)CC3)CC2)c1 | < 3 µL/min/1e6 cells | < 3 µL/min/mg |  | 

Row | Compound | hepatocyte CLint [1] | microsomal CLint ([2]; liver microsomes) | fraction unbound at 5 h ([4]; PPB) | also measured
18 | Cc1cc(F)ccc1OC1CCN(CC2CCN([C@@H](Cc3ccc(F)cc3)C(=O)O)CC2)CC1 | < 3 µL/min/1e6 cells | < 3 µL/min/mg |  | 
19 | O=C(O)Cc1ccccc1N1CCC(CN2CCC(Oc3ccc(Cl)c(Cl)c3)CC2)CC1 | < 3 µL/min/1e6 cells | < 3 µL/min/mg |  | 
20 | Nc1nnc(CCSCCc2nnc(NC(=O)Cc3ccccc3)s2)s1 | 72.4 µL/min/1e6 cells | 55 µL/min/mg |  | 
21 | Cc1cn([C@H]2CCCN([C@@H](CC(C)(C)C)c3ccc(C(=O)O)c(Oc4cccc(Br)c4)c3)C2)c(=O)[nH]c1=O | < 3 µL/min/1e6 cells |  | 0.0099 | logD ([3]; pH 7.4, LogD7.4): 1.12
22 | CCC(CC)C[C@H](c1ccc(C(=O)O)c(Oc2cccc(Cl)c2)c1)N1CCC[C@H](n2cc(C)c(=O)[nH]c2=O)C1 | 36.3 µL/min/1e6 cells |  | 0.0119 | logD ([3]; pH 7.4, LogD7.4): 1.68
23 | CCCC(C)(C)C[C@H](c1ccc(C(=O)O)c(Oc2cccc(Cl)c2)c1)N1CCC[C@H](n2cc(C)c(=O)[nH]c2=O)C1 | 52.5 µL/min/1e6 cells |  | 0.0099 | logD ([3]; pH 7.4, LogD7.4): 1.99
24 | CCc1cccc2c1N(C)Cc1cc3c(cc1-2)OCO3 | > 150 µL/min/1e6 cells | 44.7 µL/min/mg |  | 
25 | Cc1cn([C@H]2CCCN(S(=O)(=O)c3ccc(O)c(Oc4ccc(Cl)cc4)c3)C2)c(=O)[nH]c1=O | 89.1 µL/min/1e6 cells |  | 0.0139 | logD ([3]; pH 7.4, LogD7.4): 2.12
26 | Cc1cn([C@H]2CCCN(S(=O)(=O)c3ccc(O)c(Oc4cccc(Br)c4)c3)C2)c(=O)[nH]c1=O | 38 µL/min/1e6 cells |  | 0.0139 | logD ([3]; pH 7.4, LogD7.4): 2.3
27 | CS(=O)(=O)Nc1ccc(CCOCCCS(=O)(=O)CCNCCc2ccc(O)c3nc(O)sc23)cc1 | 105 µL/min/1e6 cells | 28 µL/min/mg |  | 
28 | COc1ccc(N(C(C)=O)C(C(=O)NC2CCCC2)c2ccccc2F)c(OC)c1 (centres undefined) | > 150 µL/min/1e6 cells | > 150 µL/min/mg |  | 
29 | Cc1cc(NS(=O)(=O)c2ccc(Cl)cc2)no1 | 8.51 µL/min/1e6 cells |  |  | microsomal CLint ([2]; microsomes): < 3 µL/min/mg
30 | CCCCCCCC(=O)N[C@@H](CCN)C(=O)N[C@@H](C)C(=O)N[C@@H](CCN)C(=O)N[C@H]1CCNC(=O)[C@H]([C@@H](C)O)NC(=O)[C@H](CCN)NC(=O)[C@H](CCN)NC(=O)[C@H](CC(C)C)NC(=O)[C@@H](Cc2ccccc2)NC(=O)[C@H](CCN)NC1=O (HELM PEPTIDE1{[CCCCCCCC(=O)[*:2]].[Dab].A.[Dab].[Dab].[Dab].[dF].L.[Dab].[Dab].T}$PEPTIDE1,PEPTIDE1,5:R3-11:R2$$$V2.0) | < 3 µL/min/1e6 cells |  | 0.0768 | 
31 | CCCCCCCC(=O)N[C@@H](CCN)C(=O)N[C@H](C(=O)N[C@@H](CCN)C(=O)N[C@H]1CCNC(=O)[C@H](C)NC(=O)[C@H](CCN)NC(=O)[C@H](CCN)NC(=O)[C@H](CC(C)C)NC(=O)[C@@H](Cc2ccccc2)NC(=O)[C@H](CCN)NC1=O)[C@@H](C)O (HELM PEPTIDE1{[CCCCCCCC(=O)[*:2]].[Dab].T.[Dab].[Dab].[Dab].[dF].L.[Dab].[Dab].A}$PEPTIDE1,PEPTIDE1,5:R3-11:R2$$$V2.0) | < 3 µL/min/1e6 cells |  | 0.0581 | 
32 | CC(=O)N[C@@H](CCN)C(=O)N[C@H](C(=O)N[C@@H](CCN)C(=O)N[C@H]1CCNC(=O)[C@H]([C@@H](C)O)NC(=O)[C@H](CCN)NC(=O)[C@H](CCN)NC(=O)[C@H](CC(C)C)NC(=O)[C@@H](Cc2ccccc2)NC(=O)[C@H](CCN)NC1=O)[C@@H](C)O [DEACYL POLYMYXIN B] (HELM PEPTIDE1{[ac].[Dab].T.[Dab].[Dab].[Dab].[dF].L.[Dab].[Dab].T}$PEPTIDE1,PEPTIDE1,5:R3-11:R2$$$V2.0) | < 3 µL/min/1e6 cells |  | 0.355 | 
33 | CC(=O)[C@@]1(O)CC[C@H]2[C@@H]3CCC4=CC(=O)CCC4=C3[C@@H](c3ccc(N(C)C)cc3)C[C@@]21C [ULIPRISTAL] | > 150 µL/min/1e6 cells |  |  | fraction unbound at 5 h [4]: 0.0049
34 | CN[C@@H](C)C(=O)N[C@H]1CN(C(=O)CC(C)C)CC[C@H]2CC[C@@H](C(=O)NC(c3ccccc3)c3ccccc3)N2C1=O [XEVINAPANT] | 17 µL/min/1e6 cells |  | 0.253 | logD ([3]; pH 7.4, LogD7.4): 1.82

Second part, led by results:

Row | hepatocyte CLint [1] | microsomal CLint ([2]; liver microsomes) | fraction unbound at 5 h ([4]; PPB) | Compound | also measured
35 | 30.9 µL/min/1e6 cells | 41.7 µL/min/mg |  | CC(=O)N1N=C(c2ccc(Br)cc2)CC1c1ccc(C)cc1 (centres undefined) | 
36 | 72.4 µL/min/1e6 cells |  | 0.089 | COc1ccc2ncc(C#N)c(CCN3CCC(NCc4cc5c(cn4)OCS5)CC3)c2c1 | logD ([3]; pH 7.4, LogD7.4): 2.55
37 | 138 µL/min/1e6 cells | 70.8 µL/min/mg |  | O=C(NCc1ccccc1)c1cc(-c2ccco2)on1 | 
38 | 5.25 µL/min/1e6 cells |  |  | CC(NC(=O)c1cc(O)nc2ccccc12)c1ccccc1 (centres undefined) | logD ([3]; pH 7.4): 2.2; fraction unbound at 5 h [4]: 0.36
39 | > 150 µL/min/1e6 cells | > 150 µL/min/mg |  | O=C(c1cccc(Cl)c1Cl)N1CCN(c2ccccn2)CC1 | 
40 | 91.2 µL/min/1e6 cells | 70.8 µL/min/mg |  | Cc1cccc(NC(=O)Nc2cccc3ccccc23)c1 | 
41 | 50 µL/min/1e6 cells |  | 0.0051 | O=c1cc(-c2cccnc2)[nH]c2cc(Cc3ccccc3)ccc12 | logD ([3]; pH 7.4, LogD7.4): 3.46; solubility thermodynamic [5]: 1.7 µM (≈ 0.531 µg/mL)
42 | 46 µL/min/1e6 cells |  | 0.0268 | O=c1cc(-c2cccnc2)[nH]c2cc(C(O)c3ccccc3)ccc12 (centres undefined) | solubility thermodynamic [5]: 288 µM (≈ 94.7 µg/mL)
43 | 31.6 µL/min/1e6 cells |  | 0.0818 | Cc1ccc(CO)cc1N(C)c1ccnc(Nc2cc(N3CCOCC3)cc(N3CCOCC3)c2)n1 | logD ([3]; pH 7.4, LogD7.4): 2.94; solubility thermodynamic [5]: 195 µM (≈ 95.7 µg/mL)
44 | 20.9 µL/min/1e6 cells | 10 µL/min/mg |  | CC(C)S(=O)(=O)c1ccc(-c2cnc(N)c(C(=O)Nc3ccccc3)n2)cc1 | 
45 | 89.1 µL/min/1e6 cells | 95.5 µL/min/mg |  | CC(C)CNc1nc(N2CCN(CC3CCCOC3)CC2)ncc1C(=O)NCc1ccccc1 (centres undefined) | 
46 | 35.5 µL/min/1e6 cells |  | 0.166 | COc1cc2c(ccc(=O)n2CCN2CCC(NCc3cc4c(cn3)OCCO4)CC2)cn1 | logD ([3]; pH 7.4, LogD7.4): 0.68
47 | < 3 µL/min/1e6 cells |  | 0.0736 | Cc1ccc(S(=O)(=O)Nc2c(C(=O)N[C@@H](C)C(C)(C)C)c(C)nn2C2CCOC2)cc1 (some centres undefined) | logD ([3]; pH 7.4, LogD7.4): 0.78
48 | 20.4 µL/min/1e6 cells |  |  | N#Cc1ccc(C(=O)Nc2ccc(-n3ccnc3)nc2)cc1 | microsomal CLint ([2]; microsomes): 6.31 µL/min/mg
49 | > 150 µL/min/1e6 cells |  |  | O=C(Nc1cc(-c2ccnc(Nc3ccc(F)cc3)c2)ccn1)C1CCOCC1 | microsomal CLint ([2]; microsomes): 6.03 µL/min/mg
50 | 21.9 µL/min/1e6 cells |  | 0.124 | CC(=O)Nc1ccc2ccn(-c3cc(NC4COC4)n4ncc(C#N)c4n3)c2c1 | logD ([3]; pH 7.4, LogD7.4): 2.24
51 | 12.3 µL/min/1e6 cells |  | 0.0119 | CC(=O)Nc1ccc2c(c1)c(-c1cc(NC3CC3)n3ncc(C#N)c3n1)cn2CCCO | logD ([3]; pH 7.4, LogD7.4): 2.48
52 | 19.1 µL/min/1e6 cells |  | 0.107 | Cc1cn([C@H]2CCCN([C@H](CC3CCOCC3)c3ccc(C(=O)O)c(Oc4cccc(Cl)c4)c3)C2)c(=O)[nH]c1=O | logD ([3]; pH 7.4, LogD7.4): -0.25
53 | 22.8 µL/min/1e6 cells | 49 µL/min/mg |  | O=C(NCc1ccccc1)c1ccc2cccnc2c1O | 
54 | 12.3 µL/min/1e6 cells | 9.12 µL/min/mg |  | COC(=O)C1=C(C)NC2=C(C(=O)CC(C)(C)C2)C1c1ccc(-c2ccc(C(F)(F)F)cc2)cc1 (centres undefined) | 
55 | > 150 µL/min/1e6 cells | > 150 µL/min/mg |  | COc1ccc(-c2nc3ccccc3c(=O)[nH]2)cc1 | 
56 | > 150 µL/min/1e6 cells | > 150 µL/min/mg |  | COc1ccc(N(C(=O)c2ccco2)C(C(=O)NC2CCCC2)c2ccccc2F)c(OC)c1 (centres undefined) | 
57 | 63.1 µL/min/1e6 cells | 6.31 µL/min/mg |  | C[C@@H]1CN(c2ccc(F)cc2C(F)(F)F)CCN1S(=O)(=O)c1ccc(C(N)=O)cc1Cl | 
58 | 70.8 µL/min/1e6 cells |  | 0.0209 | C[C@@]1(C(=O)Nc2ccc(F)nc2)CCCN1c1nc(Nc2cc(C3CC3)n[nH]2)c2cccn2n1 [BMS-754807] | logD ([3]; pH 7.4, LogD7.4): 3.16
59 | 5.13 µL/min/1e6 cells |  | 0.103 | N#CCNC(=O)c1ccc(-c2ccnc(Nc3ccc(N4CCOCC4)cc3)n2)cc1 [MOMELOTINIB] | logD ([3]; pH 7.4, LogD7.4): 2.37
